Assay [1] addresses T1, Single-strand selective monofunctional uracil DNA glycosylase (Homo sapiens) (UniProt Q53HV7).
T1 sequence (whole entry): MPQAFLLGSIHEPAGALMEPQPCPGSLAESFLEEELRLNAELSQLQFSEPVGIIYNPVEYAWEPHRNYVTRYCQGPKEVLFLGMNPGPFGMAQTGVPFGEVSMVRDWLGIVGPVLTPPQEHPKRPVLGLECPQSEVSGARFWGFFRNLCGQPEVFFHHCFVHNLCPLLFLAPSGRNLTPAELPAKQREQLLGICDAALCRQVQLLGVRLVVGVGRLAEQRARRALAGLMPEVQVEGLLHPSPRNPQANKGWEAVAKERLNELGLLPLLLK
Particulars: Compound Concentration 10.0 uM, Hit No.
Description: Inhibition of SMUG1 by quantifying inhibition of SMUG1-mediated cleavage and dissociation of quenched duplex DNA oligonucleotides, measured as fluorescence at 594 nm. To generate a functional strand incision and increase turn-over this assay is coupled to APE1.

Assay [2] addresses Methyl-CpG-binding domain protein 4 (Homo sapiens) (UniProt O95243). The settings on record: Compound Concentration 10.0 uM, Hit No.
Description: Inhibition of MBD4 by quantifying inhibition of MBD4-mediated cleavage and dissociation of quenched duplex DNA oligonucleotides, measured as fluorescence at 594 nm. To generate a functional strand incision and increase turn-over this assay is coupled to APE1.
Assay [3] addresses Endonuclease 8-like 1 (Homo sapiens) (UniProt Q96FI4). Particulars: Compound Concentration 10.0 uM.
Description: Inhibition of NEIL1 by quantifying inhibition of NEIL1-mediated cleavage and dissociation of quenched duplex DNA oligonucleotides, measured as fluorescence at 594 nm.
The target in assay [4] is DNA-3-methyladenine glycosylase (Homo sapiens) (UniProt P29372). The settings on record: Compound Concentration 10.0 uM, Hit No.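 Note: enzyme assay where MPG cuts a quenched duplex DNA oligonucleotide probe, paired with APE1 for strand incision and turnover, read as fluorescence at 594 nm.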
Description: Inhibition of MPG by quantifying inhibition of MPG-mediated cleavage and dissociation of quenched duplex DNA oligonucleotides, measured as fluorescence at 594 nm. To generate a functional strand incision and increase turn-over this assay is coupled to APE1.
Assay [5] concerns the target T2, Endonuclease 8-like 2 (Homo sapiens) (UniProt Q969S2).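 Note: fluorescence at 594 nm reports NEIL2 cutting and release of a quenched double-stranded DNA oligo substrate, reduced signal read as inhibition.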
T2 sequence (whole entry): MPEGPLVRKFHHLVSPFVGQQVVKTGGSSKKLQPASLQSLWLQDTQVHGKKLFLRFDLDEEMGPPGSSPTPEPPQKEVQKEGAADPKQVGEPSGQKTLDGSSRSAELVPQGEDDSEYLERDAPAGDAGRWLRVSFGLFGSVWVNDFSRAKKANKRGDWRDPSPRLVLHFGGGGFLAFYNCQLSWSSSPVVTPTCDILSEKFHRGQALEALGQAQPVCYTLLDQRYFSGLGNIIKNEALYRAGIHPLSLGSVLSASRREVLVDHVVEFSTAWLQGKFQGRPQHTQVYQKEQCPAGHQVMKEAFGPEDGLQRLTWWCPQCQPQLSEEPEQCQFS
The settings on record: Compound Concentration 10.0 uM.
Description: Inhibition of NEIL2 by quantifying inhibition of NEIL2-mediated cleavage and dissociation of quenched duplex DNA oligonucleotides, measured as fluorescence at 594 nm.

For assay [6], the target named is T3, Adenine DNA glycosylase (Homo sapiens) (UniProt Q9UIF7).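 Note: human MUTYH activity read as 594 nm fluorescence from cleavage and release of a quenched DNA duplex, coupled with APE1 for strand incision, lower signal meaning inhibition.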
T3 sequence (whole entry): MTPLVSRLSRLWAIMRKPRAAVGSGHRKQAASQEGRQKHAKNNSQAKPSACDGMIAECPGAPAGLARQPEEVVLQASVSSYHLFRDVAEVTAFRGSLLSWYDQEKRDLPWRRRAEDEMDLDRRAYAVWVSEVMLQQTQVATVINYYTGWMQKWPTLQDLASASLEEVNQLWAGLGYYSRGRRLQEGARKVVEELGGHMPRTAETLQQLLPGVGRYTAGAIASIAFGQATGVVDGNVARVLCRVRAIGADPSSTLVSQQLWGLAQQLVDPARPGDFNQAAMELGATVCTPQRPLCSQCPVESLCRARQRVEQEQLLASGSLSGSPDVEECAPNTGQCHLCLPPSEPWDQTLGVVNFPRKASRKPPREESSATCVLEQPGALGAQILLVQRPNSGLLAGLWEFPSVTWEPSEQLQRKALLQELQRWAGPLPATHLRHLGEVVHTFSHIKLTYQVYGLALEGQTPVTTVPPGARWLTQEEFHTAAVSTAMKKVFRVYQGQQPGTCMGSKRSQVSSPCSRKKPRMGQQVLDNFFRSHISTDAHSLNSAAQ
Particulars: Compound Concentration 10.0 uM, Hit No.
Description: Inhibition of MUTYH by quantifying inhibition of MUTYH-mediated cleavage and dissociation of quenched duplex DNA oligonucleotides, measured as fluorescence at 594 nm. To generate a functional strand incision and increase turn-over this assay is coupled to APE1.

Assay [7] addresses G/T mismatch-specific thymine DNA glycosylase (Homo sapiens) (UniProt Q13569). The settings on record: Compound Concentration 10.0 uM, Hit No.
Description: Inhibition of TDG by quantifying inhibition of TDG-mediated cleavage and dissociation of quenched duplex DNA oligonucleotides, measured as fluorescence at 594 nm. To generate a functional strand incision and increase turn-over this assay is coupled to APE1.
For assay [8], the target named is T4, Endonuclease III-like protein 1 (Homo sapiens) (UniProt P78549).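 Note: enzyme assay tracking NTHL1 cutting and release of a quenched double-stranded DNA oligo substrate, read as fluorescence at 594 nm.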
T4 sequence (whole entry): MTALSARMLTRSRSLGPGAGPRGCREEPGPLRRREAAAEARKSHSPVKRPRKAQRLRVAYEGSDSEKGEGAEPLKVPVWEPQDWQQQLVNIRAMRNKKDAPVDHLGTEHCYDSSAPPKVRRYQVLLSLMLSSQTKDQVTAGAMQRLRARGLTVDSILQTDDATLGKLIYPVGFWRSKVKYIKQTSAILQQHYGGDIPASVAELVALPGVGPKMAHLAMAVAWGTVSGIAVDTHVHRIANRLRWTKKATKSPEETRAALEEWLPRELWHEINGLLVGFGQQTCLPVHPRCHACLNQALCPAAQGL
Particulars: Compound Concentration 10.0 uM.
Description: Inhibition of NTHL1 by quantifying inhibition of NTHL1-mediated cleavage and dissociation of quenched duplex DNA oligonucleotides, measured as fluorescence at 594 nm.

The target of assay [9] is Uracil-DNA glycosylase (Homo sapiens) (UniProt P13051). Particulars: Compound Concentration 10.0 uM, Hit No.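 Note: UNG excision on a quenched double-stranded DNA oligo probe, with APE1 added for strand incision and turnover, read as fluorescence at 594 nm as strands separate.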
Description: Inhibition of UNG by quantifying inhibition of UNG-mediated cleavage and dissociation of quenched duplex DNA oligonucleotides, measured as fluorescence at 594 nm. To generate a functional strand incision and increase turn-over this assay is coupled to APE1.
Assay [10] concerns the target N-glycosylase/DNA lyase (Homo sapiens) (UniProt O15527). Particulars: Compound Concentration 10.0 uM, Hit No.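 Note: OGG1 cleavage of a quenched duplex DNA oligonucleotide, coupled to APE1 for strand incision, read as fluorescence at 594 nm.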
Description: Inhibition of OGG1 by quantifying inhibition of OGG1-mediated cleavage and dissociation of quenched duplex DNA oligonucleotides, measured as fluorescence at 594 nm. To generate a functional strand incision and increase turn-over this assay is coupled to APE1.

A word on the inhibition: it is the drop in the measured response relative to a control, in per cent.

Uracil-DNA glycosylase (Homo sapiens), sequence (P13051 whole entry): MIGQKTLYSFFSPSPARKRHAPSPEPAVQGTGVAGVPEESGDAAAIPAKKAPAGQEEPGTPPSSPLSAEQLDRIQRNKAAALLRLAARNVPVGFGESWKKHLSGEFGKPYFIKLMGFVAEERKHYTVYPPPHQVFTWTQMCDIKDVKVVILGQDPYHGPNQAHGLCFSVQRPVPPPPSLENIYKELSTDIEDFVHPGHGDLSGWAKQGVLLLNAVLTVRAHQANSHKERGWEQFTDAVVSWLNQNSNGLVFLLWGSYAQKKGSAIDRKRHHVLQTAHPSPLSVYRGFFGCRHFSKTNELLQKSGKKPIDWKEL
Endonuclease 8-like 1 (Homo sapiens), sequence (Q96FI4 whole entry): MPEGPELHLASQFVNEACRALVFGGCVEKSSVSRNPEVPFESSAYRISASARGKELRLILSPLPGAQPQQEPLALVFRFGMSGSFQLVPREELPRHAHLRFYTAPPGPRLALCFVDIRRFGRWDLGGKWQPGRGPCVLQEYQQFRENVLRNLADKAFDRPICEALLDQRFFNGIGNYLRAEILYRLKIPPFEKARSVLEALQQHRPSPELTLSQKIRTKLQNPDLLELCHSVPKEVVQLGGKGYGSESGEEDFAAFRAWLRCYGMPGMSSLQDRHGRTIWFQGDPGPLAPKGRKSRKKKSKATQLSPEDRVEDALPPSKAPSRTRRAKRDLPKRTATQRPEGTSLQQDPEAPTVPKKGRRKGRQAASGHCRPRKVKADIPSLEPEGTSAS
Methyl-CpG-binding domain protein 4 (Homo sapiens), sequence (O95243 whole entry, the tested form may be a part): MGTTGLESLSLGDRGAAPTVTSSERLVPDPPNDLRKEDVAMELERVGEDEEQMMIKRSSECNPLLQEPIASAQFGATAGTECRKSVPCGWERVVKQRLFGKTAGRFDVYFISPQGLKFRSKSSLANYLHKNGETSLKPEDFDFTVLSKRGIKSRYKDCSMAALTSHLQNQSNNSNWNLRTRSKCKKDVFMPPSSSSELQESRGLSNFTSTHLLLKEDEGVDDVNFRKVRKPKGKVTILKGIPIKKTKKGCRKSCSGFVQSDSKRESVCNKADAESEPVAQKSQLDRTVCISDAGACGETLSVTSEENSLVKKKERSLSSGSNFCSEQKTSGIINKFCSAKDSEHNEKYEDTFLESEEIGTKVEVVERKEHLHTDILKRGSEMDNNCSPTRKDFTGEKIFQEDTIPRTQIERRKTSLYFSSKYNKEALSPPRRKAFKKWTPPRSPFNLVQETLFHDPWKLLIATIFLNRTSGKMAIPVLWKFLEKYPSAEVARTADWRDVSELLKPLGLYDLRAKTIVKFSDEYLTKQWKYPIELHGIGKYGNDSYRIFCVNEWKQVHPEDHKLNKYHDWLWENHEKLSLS
DNA-3-methyladenine glycosylase (Homo sapiens), sequence (P29372 whole entry): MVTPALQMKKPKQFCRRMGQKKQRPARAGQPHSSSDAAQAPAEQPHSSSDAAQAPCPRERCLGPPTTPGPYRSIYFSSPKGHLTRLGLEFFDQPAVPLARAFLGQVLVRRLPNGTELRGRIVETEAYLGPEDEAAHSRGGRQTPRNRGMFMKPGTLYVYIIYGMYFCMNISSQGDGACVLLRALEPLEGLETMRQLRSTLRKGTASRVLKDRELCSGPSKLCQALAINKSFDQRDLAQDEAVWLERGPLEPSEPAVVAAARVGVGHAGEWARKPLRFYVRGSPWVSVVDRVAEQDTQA
N-glycosylase/DNA lyase (Homo sapiens), sequence (O15527 whole entry): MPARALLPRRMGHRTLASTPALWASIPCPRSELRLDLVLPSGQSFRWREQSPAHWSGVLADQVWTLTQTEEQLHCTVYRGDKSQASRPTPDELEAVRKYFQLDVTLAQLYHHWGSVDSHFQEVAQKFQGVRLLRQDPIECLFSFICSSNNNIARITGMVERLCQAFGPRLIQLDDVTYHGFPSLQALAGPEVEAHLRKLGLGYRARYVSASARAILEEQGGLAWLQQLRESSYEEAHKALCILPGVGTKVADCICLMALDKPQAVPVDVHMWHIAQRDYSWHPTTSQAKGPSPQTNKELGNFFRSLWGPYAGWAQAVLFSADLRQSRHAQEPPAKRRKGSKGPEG
G/T mismatch-specific thymine DNA glycosylase (Homo sapiens), sequence (Q13569 whole entry): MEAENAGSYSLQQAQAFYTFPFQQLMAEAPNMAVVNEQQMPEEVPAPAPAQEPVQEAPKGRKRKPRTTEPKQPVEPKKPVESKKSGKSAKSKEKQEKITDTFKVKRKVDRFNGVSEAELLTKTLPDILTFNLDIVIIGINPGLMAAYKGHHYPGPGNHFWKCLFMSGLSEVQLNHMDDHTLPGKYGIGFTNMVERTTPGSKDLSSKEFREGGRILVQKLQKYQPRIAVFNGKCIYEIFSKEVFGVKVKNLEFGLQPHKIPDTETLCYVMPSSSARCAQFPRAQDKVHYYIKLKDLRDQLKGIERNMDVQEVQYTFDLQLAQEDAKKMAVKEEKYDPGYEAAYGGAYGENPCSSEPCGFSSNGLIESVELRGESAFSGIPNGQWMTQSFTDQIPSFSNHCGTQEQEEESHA

With `O=c1c(Br)ccc2n1C[C@@H]1CNC[C@H]2C1`, the inhibition in [1] was 8.97%; in assay [2] it was 13.1%; in [3] (Hit No), 1.79%; in [4], 3.69%; in assay [5] (Hit No), -6.72%; in [6], -5.79%. Also, the inhibition in [7] is 22.8%; in assay [8] (Hit No), 8.82%; in [9], -0.226%; in [10], -1.3%.

`Cc1ccc2nc(NCCN)c3ncc(C)n3c2c1`: the inhibition worked out at 44.2% in assay [1]; 53% in assay [2]; 28.9% in assay [3] (Hit Yes); 75.9% in assay [4]; 47.1% in [5] (Hit Yes); 83.5% in assay [6]. For the same compound, the inhibition in assay [7] came out at 67.6%; in assay [8] (Hit Yes), 43.3%; in assay [9], 14.9%; in assay [10] it was 47.4%.

For the compound `O=[N+]([O-])c1ccc(CN2CCOCCOCCN(Cc3ccc([N+](=O)[O-])cc3)CCOCC2)cc1`, the inhibition is -2.67% in assay [1]; 13.5% in [2]; -2.36% in [3] (Hit No); 31.4% in assay [4]; -0.35% in assay [5] (Hit No); 3.42% in assay [6]. For the same compound, the inhibition in [7] is -1.51%; in assay [8] (Hit No), 23.7%; in assay [9], -6.52%; in assay [10] it was -5.46%.

Regarding `NC(=O)c1cc(-c2ccc(S(=O)(=O)[C@H]3CC[C@H](Nc4ccc(C(F)(F)F)cn4)CC3)cc2)ccn1`, the inhibition in [1] was 12.2%; in assay [2], 10.9%; in assay [3] (Hit No), 11%; in [4], -6.62%; in assay [5] (Hit No), 9.33%; in assay [6] it was 25.9%. Besides, the inhibition in [7] is 8.07%; in assay [8] (Hit No), 17.1%; in assay [9], 4.02%; in [10] it was -3%.

For `COc1cc(OC)cc(C(=O)NNC(=O)Nc2cccc3ccccc23)c1`, the inhibition in assay [1] is 3.6%; in [2], -8.62%; in assay [3] (Hit No), -1.69%; in assay [4], 3.65%; in [5] (Hit No) it was 5.26%; in [6], 2.2%. Moreover, the inhibition in assay [7] was 11.6%; in assay [8] (Hit No) it was 2.66%; in assay [9], -7.99%; in [10], 3.09%.

On to `CC1(C)[C@H]2C[C@H](C/C=C\CCCC(=O)O)[C@@H](NC(=O)c3csc4ccc(O)cc34)[C@@H]1C2`, for which the inhibition in assay [1] was -7.2%; in assay [2], 19.3%; in assay [3] (Hit No), 13.3%; in assay [4], 9.36%; in assay [5] (Hit No), 3.51%; in assay [6], 14.6%. Further, the inhibition in assay [7] was 20.1%; in assay [8] (Hit No), -3.21%; in assay [9], -7.99%; in assay [10] it was 3.96%.

As to `CCOC(=O)c1ccc(N2C(=O)C(O)=C(C(=O)c3ccc(OC)cc3)C2c2ccc(F)cc2)cc1` (stereo not given), the inhibition is 1.4% in assay [1]; 55.1% in [2]; 11.9% in assay [3] (Hit No); 15.7% in assay [4]; 0.414% in [5] (Hit No); 62.9% in assay [6]. Also, the inhibition in [7] was 46.7%; in [8] (Hit No), 21.2%; in assay [9] it was 1.33%; in assay [10], -5.97%.

On to `N[C@](CC1c2ccccc2Oc2ccccc21)(C(=O)O)[C@H]1C[C@@H]1C(=O)O`, for which the inhibition in [1] was -0.127%; in assay [2] it was 16.1%; in [3] (Hit No), 0.898%; in assay [4] it was 10.3%; in assay [5] (Hit No), 0.414%; in assay [6], 12.3%. The inhibition is 24.2% in assay [7], 8.82% in assay [8] (Hit No), -3.16% in [9] and -5.15% in assay [10].

Turning to `Cc1cc(C)cc(C(=O)N(C)[C@H](Cc2ccc(-c3ccccc3)cc2)C(=O)N[C@@H](Cc2c[nH]c3ccccc23)C(=O)O)c1`, the inhibition in assay [1] was 4.62%; in [2], 60.3%; in [3] (Hit No), -1.83%; in assay [4], 4.38%; in assay [5] (Hit No), 12.5%; in assay [6] it was 76.9%. The inhibition was 48.4% in [7], 2.66% in assay [8] (Hit No), 6.08% in assay [9] and 16.2% in assay [10].

`COc1ccc(CCCN2CCC(COC(c3ccccc3)c3ccccc3)CC2)cc1`: the inhibition stood at 9.31% in assay [1]; 49.2% in assay [2]; 4.75% in assay [3] (Hit No); 47.2% in assay [4]; 8.06% in [5] (Hit No); 35% in assay [6]. The inhibition in [7] was 47.6%; in [8] (Hit No), 13.8%; in assay [9], -1.12%; in assay [10], -0.567%.

`Cc1ccc2c(c1CCC(=O)O)CC[C@@H](NS(=O)(=O)c1ccc(Cl)cc1)C2`: the inhibition was 4.86% in assay [1]; 16.2% in [2]; 5.13% in assay [3] (Hit No); 11.8% in assay [4]; 1.01% in assay [5] (Hit No); 33.4% in assay [6]. The inhibition in assay [7] was 18%; in [8] (Hit No), 15.1%; in [9], -7.64%; in [10], 10%.

Consider `CCCOc1ccc2[nH]cc(C3=CCNCC3)c2n1`, for which the inhibition was -1.82% in [1]; -0.485% in assay [2]; 0.306% in assay [3] (Hit No); -2.25% in assay [4]; -8.25% in assay [5] (Hit No); 0.205% in assay [6]. In addition, the inhibition is 11.1% in [7], 7.17% in assay [8] (Hit No), -5.52% in assay [9] and -9.55% in [10].

For `CC(/C=C1\SC(=S)N(CCCC(=O)Nc2ccc(C(=O)O)c(O)c2)C1=O)=C\c1ccccc1`, the inhibition was -1.92% in [1]; 64% in assay [2]; 11.6% in assay [3] (Hit No); 34.2% in assay [4]; 13.7% in assay [5] (Hit No); 46.5% in assay [6]. Moreover, the inhibition in assay [7] was 53%; in assay [8] (Hit No), 0.0916%; in [9], -7.24%; in assay [10], 25.4%.

Turning to `O=C(O)c1ccccc1S(=O)(=O)NCCCCN1C(=O)c2cccc3cccc(c23)C1=O`, the inhibition in assay [1] stood at 12.5%; in assay [2], 12%; in assay [3] (Hit No) it was 8.25%; in assay [4], 3.23%; in [5] (Hit No) it was 8%; in assay [6], 23.6%. For the same compound, the inhibition was 16.1% in [7], -8.34% in [8] (Hit No), -8.5% in [9] and 2.55% in assay [10].
